Results: patent publication US20140171358A1, “ANTIMICROBIAL COMPOSITIONS COMPRISING DGLA AND NEOMYCIN SULFATE AND METHODS OF USE THEREOF” (Dignity Sciences Limited, priority 2012, published 2014)

Assays:
Format in all cases: cell-based
P. acnes = experiment: agar dilution method: growth index and MIC on P. acnes (single compounds and combinations)
Procedure: Several compounds including fatty acids such as DGLA, 15-OHEPA, and 15-HETrE were tested to determine their capacity to inhibit the growth of P. acnes. In an exemplary method, an agar dilution method was used to determine the minimum inhibitory concentration (MIC) of each tested compound. Briefly, the agar dilution method involved preparing a series of concentrations of each compound (e.g., nicotinamide, benzoyl peroxide, adapalene, metronidazole, DGLA, 15-OHEPA, and 15-HETrE) in a Reinforced Clostridial Agar (RCA) media that facilitates growth of P. acnes under anaerobic conditions. An inoculum of P. acnes was prepared by incubation of P. acnes for approximately seven days at 35-37° C. to achieve a ≧1.0 OD600 inoculum of P. acnes in RCM broth. A portion of this inoculum was then added to the surface of each plate as a 10 μL spot and incubated at 35-37° C. for 72 hours or more. Growth of P. acnes was then observed and compared to control plates in which no compound has been added, and positive inhibition plates prepared with erythromycin. […] The growth of P. acnes in the presence of nicotinamide, benzoyl peroxide, adapalene, metronidazole, DGLA, 15-OHEPA, and 15-HETrE was determined with varying concentrations of the compound (see, Table 2). Next, the MIC was determined as the concentration at which a marked reduction (+) occurs in the appearance of growth on the test plate (as per Clinical and Laboratory Standards Institute M11-A7). The compounds tested singly in Example 1 were tested in combination with one another to determine the capacity of the combination to inhibit the growth of P. acnes. In an exemplary method, the MIC was determined for each of the combination as described in Example 1. Briefly, test combinations included DGLA with nicotinamide, benzoyl peroxide, adapalene, or metronidazole; 15-HETrE with nicotinamide, benzoyl peroxide, adapalene, or metronidazole; and 15-OHEPA with nicotinamide, benzoyl peroxide, adapalene, or metronidazole. The tables below show the growth of P. acnes in the presence of 0.4 or 1.0 mg/mL DGLA with varying concentrations of nicotinamide, benzoyl peroxide, adapalene, or metronidazole (Table 3); the growth of P. acnes in the presence of 0.01 or 0.05 mg/mL 15-HETrE with varying concentrations of nicotinamide, benzoyl peroxide, adapalene, or metronidazole (Table 5); and the growth of P. acnes in the presence of 0.5 or 0.1 mg/mL 15-OHEPA with varying concentrations of nicotinamide, benzoyl peroxide, adapalene, or metronidazole (Table 7).

A. brasiliensis = experiment: paper disc corrected zone of inhibition (CZOI) on Mueller Hinton agar
Procedure: (§1) The compounds tested in Example 1 were tested to determine their capacity to inhibit the growth of a variety of Gram-negative bacteria, Gram-positive bactgeria, fungi and yeast. In an exemplary method, Mueller Hinton agar plates were streaked with 500 μL of a 10^5 colony-forming units/mL culture and allowed to dry for at least one minute. A sterile paper disc (6 mm diameter) was then placed in the middle of each plate using sterile forceps. Twenty microliters of a solution of a known concentration of a test compound in filter-sterilized 95% ethanol were pipetted onto each test plate. Two streaked plates served as positive inhibitory controls and contained 6 mm sterile paper discs with standard tetracycline solutions. Two additional plates served as negative inhibition controls and each contained 6 mm sterile paper discs with 20 μL of filter-sterilized 95% ethanol. Two more plates served as positive growth controls and contained no paper disc or added antibacterial agent. The plates were incubated at 32.5±2° C. for 24±4 hours, after which the corrected zone of inhibition (“CZOI”) was determined as follows: For each plate, the length Y2 and width X2 of the test sample (paper disc) and length Y1 and width X1 of the clear zone were measured (FIG. 1). The CZOI was calculated from these values as shown by the equation below: [formula]

C. albicans = experiment: as above
Procedure: as §1

C. striatum = experiment: as above
Procedure: as §1

E. coli = experiment: as above
Procedure: as §1

E. faecalis = experiment: as above
Procedure: as §1

K. pneumoniae = experiment: as above
Procedure: as §1

P. aeroginosa = experiment: as above
Procedure: as §1

S. aureus = experiment: as above
Procedure: as §1

S. epidermidis = experiment: as above
Procedure: as §1

CCCCC/C=C\C/C=C\C/C=C\CCCCCCC(=O)O [DGLA, cis-8,11,14-eicosatrienoic acid]
effect on growth of P. acnes on its own (P. acnes; 0.4 mg/ml): no effect on its own | MIC (P. acnes; Cutibacterium acnes, compound alone, read-out: MIC (mg/mL) as per P-11-0007 or P-11-0008 Addendum A): 0.4 to 0.6 mg/mL | Average CZOI (A. brasiliensis; 0.6 mg/mL): 1.5 mm | Average CZOI (A. brasiliensis; 0.8 mg/mL): 4 mm | Average CZOI (A. brasiliensis; 1.0 mg/mL): 2.75 mm | Average CZOI (A. brasiliensis; 1.2 mg/mL): 1.75 mm | Average CZOI (A. brasiliensis; 1.4 mg/mL): 2.25 mm | Lowest Concentration With Observed Inhibition (A. brasiliensis; A. brasiliensis): 0.6 mg/mL | Most Effective Concentration Observed (A. brasiliensis; A. brasiliensis): 0.8 mg/mL | Average CZOI (C. albicans; 0.6 mg/mL): 1 mm | Average CZOI (C. albicans; 0.8 mg/mL): 0.75 mm | Average CZOI (C. albicans; 1.0 mg/mL): 1.75 mm | Average CZOI (C. albicans; 1.2 mg/mL): 2 mm | Average CZOI (C. albicans; 1.4 mg/mL): 3 mm | Lowest Concentration With Observed Inhibition (C. albicans; C. albicans): 0.6 mg/mL | Most Effective Concentration Observed (C. albicans; C. albicans): 1.4 mg/mL | Average CZOI (C. striatum; 0.6 mg/mL): 3.75 mm | Average CZOI (C. striatum; 0.8 mg/mL): 2.75 mm | Average CZOI (C. striatum; 1.0 mg/mL): 2 mm | Average CZOI (C. striatum; 1.2 mg/mL): 4.75 mm | Average CZOI (C. striatum; 1.4 mg/mL): 2.75 mm | Lowest Concentration With Observed Inhibition (C. striatum; C. striatum): 0.6 mg/mL | Most Effective Concentration Observed (C. striatum; C. striatum): 1.2 mg/mL | Average CZOI (E. coli; 0.6 mg/mL): 1 mm | Average CZOI (E. coli; 0.8 mg/mL): 1 mm | Average CZOI (E. coli; 1.0 mg/mL): 1.5 mm | Average CZOI (E. coli; 1.2 mg/mL): 0.5 mm | Average CZOI (E. coli; 1.4 mg/mL): 0.25 mm | Lowest Concentration With Observed Inhibition (E. coli; E. coli): 0.6 mg/mL | Most Effective Concentration Observed (E. coli; E. coli): 1.0 mg/mL | Average CZOI (E. faecalis; 0.6 mg/mL): 3.25 mm | Average CZOI (E. faecalis; 0.8 mg/mL): 3 mm | Average CZOI (E. faecalis; 1.0 mg/mL): 5 mm | Average CZOI (E. faecalis; 1.2 mg/mL): 2 mm | Average CZOI (E. faecalis; 1.4 mg/mL): 1.75 mm | Lowest Concentration With Observed Inhibition (E. faecalis; E. faecalis): 0.6 mg/mL | Most Effective Concentration Observed (E. faecalis; E. faecalis): 1.0 mg/mL | Average CZOI (K. pneumoniae; 0.6 mg/mL): 1.75 mm | Average CZOI (K. pneumoniae; 0.8 mg/mL): 2 mm | Average CZOI (K. pneumoniae; 1.0 mg/mL): 2.75 mm | Average CZOI (K. pneumoniae; 1.2 mg/mL): 2 mm | Average CZOI (K. pneumoniae; 1.4 mg/mL): 1.25 mm | Lowest Concentration With Observed Inhibition (K. pneumoniae; K. pneumoniae): 0.6 mg/mL | Most Effective Concentration Observed (K. pneumoniae; K. pneumoniae): 1.0 mg/mL | Average CZOI (P. aeroginosa; 0.6 mg/mL): 1 mm | Average CZOI (P. aeroginosa; 0.8 mg/mL): 1 mm | Average CZOI (P. aeroginosa; 1.0 mg/mL): 1 mm | Average CZOI (P. aeroginosa; 1.2 mg/mL): 1 mm | Average CZOI (P. aeroginosa; 1.4 mg/mL): 1 mm | Lowest Concentration With Observed Inhibition (P. aeroginosa; P. aeroginosa): 0.6 mg/mL | Most Effective Concentration Observed (P. aeroginosa; P. aeroginosa): 0.6 mg/mL | Average CZOI (S. aureus; 0.6 mg/mL): 1.25 mm | Average CZOI (S. aureus; 0.8 mg/mL): 3 mm | Average CZOI (S. aureus; 1.0 mg/mL): 3 mm | Average CZOI (S. aureus; 1.2 mg/mL): 3 mm | Average CZOI (S. aureus; 1.4 mg/mL): 2 mm | Lowest Concentration With Observed Inhibition (S. aureus; S. aureus): 0.6 mg/mL | Most Effective Concentration Observed (S. aureus; S. aureus): 0.8 mg/mL | Average CZOI (S. epidermidis; 0.6 mg/mL): 4.75 mm | Average CZOI (S. epidermidis; 0.8 mg/mL): 3.25 mm | Average CZOI (S. epidermidis; 1.0 mg/mL): 6.5 mm | Average CZOI (S. epidermidis; 1.2 mg/mL): 3 mm | Average CZOI (S. epidermidis; 1.4 mg/mL): 1 mm | Lowest Concentration With Observed Inhibition (S. epidermidis; S. epidermidis): 0.6 mg/mL | Most Effective Concentration Observed (S. epidermidis; S. epidermidis): 1.0 mg/mL
